Tested on: K98450-129-R-PDC multicell spheroids, viability
Assay: Anticancer human tumor K98450-129-R-PDC patient-derived colon adenocarcinoma cell line growth inhibition [PI3K]
Conditions: for IC50: curve of first compound; for viability, T/C: stronger effect = lower value
Method in brief: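 Combination activity was assessed by viability in multicellular tumor spheroids carrying HUVEC and MSC components. Agents were tested with PI3K inhibitors from a Cmax-based top dose (or 10 microM) downward in half-log increments.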

[1] = second compound 0.0316 µM, first compound 0.0316 µM
[2] = second compound 0.0316 µM, first compound 0.1 µM
[3] = second compound 0.0316 µM, first compound 0.316 µM
[4] = second compound 0.0316 µM, first compound 1 µM
[5] = second compound 0.0316 µM, first compound 3.16 µM
[6] = second compound 0.0316 µM, first compound 10 µM
[7] = second compound 0.1 µM, first compound 0.0316 µM
[8] = second compound 0.1 µM, first compound 0.1 µM
[9] = second compound 0.1 µM, first compound 0.316 µM
[10] = second compound 0.1 µM, first compound 1 µM
[11] = second compound 0.1 µM, first compound 3.16 µM
[12] = second compound 0.1 µM, first compound 10 µM
[13] = second compound 0.316 µM, first compound 0.0316 µM
[14] = second compound 0.316 µM, first compound 0.1 µM
[15] = second compound 0.316 µM, first compound 0.316 µM
[16] = second compound 0.316 µM, first compound 1 µM
[17] = second compound 0.316 µM, first compound 3.16 µM
[18] = second compound 0.316 µM, first compound 10 µM
[19] = second compound 1 µM, first compound 0.0316 µM
[20] = second compound 1 µM, first compound 0.1 µM
[21] = second compound 1 µM, first compound 0.316 µM
[22] = second compound 1 µM, first compound 1 µM
[23] = second compound 1 µM, first compound 3.16 µM
[24] = second compound 1 µM, first compound 10 µM
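Further: spheroids exposed to agents for seven days before read-out.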

Work on `CC(C)NCC(C(=O)N1CCN(c2ncnc3c2C(C)CC3O)CC1)c1ccc(Cl)cc1` (centres undefined) + COc1c(OCCCN2CCOCC2)ccc2c3n(c(=NC(=O)c4cnc(N)nc4)nc12)CCN3 yielded an IC50 (second compound 0.00316 µM) of over 10 µM, an IC50 (second compound 0.01 µM) of over 10 µM and an IC50 (second compound 0.0316 µM) of over 10 µM. The IC50 (second compound 0.1 µM) was over 10 µM, the IC50 (second compound 0.316 µM) was over 10 µM and the IC50 (second compound 1 µM) was over 10 µM. For the same compound, the viability, T/C (second compound 0.00316 µM, first compound 0.0316 µM) was 107%, the viability, T/C (second compound 0.00316 µM, first compound 0.1 µM) was 95.9% and the viability, T/C (second compound 0.00316 µM, first compound 0.316 µM) was 115%. The viability, T/C (second compound 0.00316 µM, first compound 1 µM) was 99%, the viability, T/C (second compound 0.00316 µM, first compound 3.16 µM) was 97.4% and the viability, T/C (second compound 0.00316 µM, first compound 10 µM) was 89.8%. For the same compound, the viability, T/C (second compound 0.01 µM, first compound 0.0316 µM) was 111%, the viability, T/C (second compound 0.01 µM, first compound 0.1 µM) was 106% and the viability, T/C (second compound 0.01 µM, first compound 0.316 µM) was 99.3%. For the same compound, the viability, T/C (second compound 0.01 µM, first compound 1 µM) was 98.8%, the viability, T/C (second compound 0.01 µM, first compound 3.16 µM) was 90.6% and the viability, T/C (second compound 0.01 µM, first compound 10 µM) was 93.3%. It also gave a viability, T/C [1] of 94%, a viability, T/C [2] of 114% and a viability, T/C [3] of 88.4%. The viability, T/C [4] was 95.1%, the viability, T/C [5] was 89.8% and the viability, T/C [6] was 86.2%. It also gave a viability, T/C [7] of 79%, a viability, T/C [8] of 66.4% and a viability, T/C [9] of 67%. For the same compound, the viability, T/C [10] was 73.7%, the viability, T/C [11] was 95.4% and the viability, T/C [12] was 82.9%. It also gave a viability, T/C [13] of 69.5%, a viability, T/C [14] of 73.8% and a viability, T/C [15] of 58.7%. The viability, T/C [16] was 65.2%, the viability, T/C [17] was 68.9% and the viability, T/C [18] was 66.3%. It also gave a viability, T/C [19] of 54.1%, a viability, T/C [20] of 49.3% and a viability, T/C [21] of 55.6%. The viability, T/C [22] was 45.2%, the viability, T/C [23] was 59.7% and the viability, T/C [24] was 47.5%.

`C=CC(=O)N1CCN(c2nc(=O)n(-c3c(C)ccnc3C(C)C)c3nc(-c4c(O)cccc4F)c(F)cc23)C(C)C1` (centres undefined) + Cc1nc(NC(=O)N2CCCC2C(N)=O)sc1-c1ccnc(C(C)(C)C(F)(F)F)c1 showed an IC50 (second compound 0.0316 µM) of 4.01 µM, an IC50 (second compound 0.1 µM) of 3.48 µM and an IC50 (second compound 0.316 µM) of 2.63 µM. The IC50 (second compound 1 µM) was 1.91 µM, the IC50 (second compound 3.16 µM) was 1.33 µM and the IC50 (second compound 10 µM) was 0.502 µM. For the same compound, the viability, T/C [1] was 111%, the viability, T/C [2] was 102% and the viability, T/C [3] was 97.3%. For the same compound, the viability, T/C [4] was 84.5%, the viability, T/C [5] was 52.8% and the viability, T/C [6] was 33.1%. It also gave a viability, T/C [7] of 102%, a viability, T/C [8] of 94% and a viability, T/C [9] of 96.8%. It also gave a viability, T/C [10] of 77.7%, a viability, T/C [11] of 52.4% and a viability, T/C [12] of 28.2%. The viability, T/C [13] was 102%, the viability, T/C [14] was 106% and the viability, T/C [15] was 93.6%. The viability, T/C [16] was 78.7%, the viability, T/C [17] was 44% and the viability, T/C [18] was 26.8%. The viability, T/C [19] was 90.5%, the viability, T/C [20] was 92.7% and the viability, T/C [21] was 84.4%. The viability, T/C [22] was 69%, the viability, T/C [23] was 35.4% and the viability, T/C [24] was 22.7%. It also gave a viability, T/C (second compound 3.16 µM, first compound 0.0316 µM) of 83.7%, a viability, T/C (second compound 3.16 µM, first compound 0.1 µM) of 85% and a viability, T/C (second compound 3.16 µM, first compound 0.316 µM) of 86.5%. The viability, T/C (second compound 3.16 µM, first compound 1 µM) was 55.7%, the viability, T/C (second compound 3.16 µM, first compound 3.16 µM) was 29.1% and the viability, T/C (second compound 3.16 µM, first compound 10 µM) was 17.6%. The viability, T/C (second compound 10 µM, first compound 0.0316 µM) was 73.9%, the viability, T/C (second compound 10 µM, first compound 0.1 µM) was 79.3% and the viability, T/C (second compound 10 µM, first compound 0.316 µM) was 61.6%. It also gave a viability, T/C (second compound 10 µM, first compound 1 µM) of 31.1%, a viability, T/C (second compound 10 µM, first compound 3.16 µM) of 12.9% and a viability, T/C (second compound 10 µM, first compound 10 µM) of 8.56%.

From PubChem BioAssay AID1963961 (Molecular Pharmacology Branch, DTP, NCI, 2024)
